Reference: ChEMBL document CHEMBL1129506, “2,4-Diarylpyrrolidine-3-carboxylic acids--potent ETA selective endothelin receptor antagonists. 1. Discovery of A-127722” (J Med Chem, 1996)

Experiments:
[1] = target: T1, Endothelin receptor type B (Homo sapiens, UniProt P24530); test: Inhibitory activity against human Endothelin B receptor in chinese hamster ovary cells; type: cell-based, CHO
T1 sequence (P24530 whole entry): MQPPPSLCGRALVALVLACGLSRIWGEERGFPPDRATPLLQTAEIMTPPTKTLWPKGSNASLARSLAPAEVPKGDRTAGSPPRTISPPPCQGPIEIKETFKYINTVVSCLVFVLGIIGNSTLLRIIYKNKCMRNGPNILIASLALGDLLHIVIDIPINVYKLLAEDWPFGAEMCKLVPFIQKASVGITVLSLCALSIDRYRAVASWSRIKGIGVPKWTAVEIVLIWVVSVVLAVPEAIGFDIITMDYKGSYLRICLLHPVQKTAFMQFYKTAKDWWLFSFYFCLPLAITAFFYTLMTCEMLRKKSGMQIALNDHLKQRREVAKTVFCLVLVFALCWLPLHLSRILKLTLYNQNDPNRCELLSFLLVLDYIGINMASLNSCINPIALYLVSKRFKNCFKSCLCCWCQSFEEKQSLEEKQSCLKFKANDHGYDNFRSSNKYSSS

Endothelin-1 receptor [2] = target: T2, Endothelin-1 receptor (Homo sapiens, UniProt P25101); test: Inhibitory activity against human Endothelin A receptor in chinese hamster ovary cells; type: cell-based, CHO
T2 sequence (P25101 whole entry): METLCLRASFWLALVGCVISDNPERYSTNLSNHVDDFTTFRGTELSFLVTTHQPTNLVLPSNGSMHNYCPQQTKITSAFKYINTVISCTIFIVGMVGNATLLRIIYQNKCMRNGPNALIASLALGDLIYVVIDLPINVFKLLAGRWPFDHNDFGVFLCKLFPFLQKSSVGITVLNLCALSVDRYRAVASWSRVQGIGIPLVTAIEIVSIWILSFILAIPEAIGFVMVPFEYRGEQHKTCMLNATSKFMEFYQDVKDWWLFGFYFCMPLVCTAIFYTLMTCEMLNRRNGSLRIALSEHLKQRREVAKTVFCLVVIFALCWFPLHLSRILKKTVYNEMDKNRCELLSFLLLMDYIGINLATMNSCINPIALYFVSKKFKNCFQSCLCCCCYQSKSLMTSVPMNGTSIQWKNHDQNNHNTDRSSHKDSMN

[3] = target: T3, Endothelin receptor type B (Sus scrofa, UniProt P35463); test: Inhibitory activity measured against Endothelin B receptor binding to porcine cerebellum; type: tissue-based
T3 sequence (P35463 whole entry): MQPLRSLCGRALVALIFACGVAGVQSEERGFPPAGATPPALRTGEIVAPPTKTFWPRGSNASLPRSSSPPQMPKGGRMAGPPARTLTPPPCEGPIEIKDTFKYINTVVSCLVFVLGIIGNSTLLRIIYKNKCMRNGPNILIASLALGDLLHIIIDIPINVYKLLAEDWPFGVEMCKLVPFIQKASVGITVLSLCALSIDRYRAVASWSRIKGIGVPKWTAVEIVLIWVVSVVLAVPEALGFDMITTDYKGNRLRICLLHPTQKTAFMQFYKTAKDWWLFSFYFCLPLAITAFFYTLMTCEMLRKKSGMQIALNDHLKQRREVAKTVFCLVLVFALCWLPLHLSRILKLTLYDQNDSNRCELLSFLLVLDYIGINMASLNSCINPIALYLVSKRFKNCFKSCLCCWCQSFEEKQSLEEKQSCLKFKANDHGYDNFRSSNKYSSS

Endothelin-1 receptor [4] = target: T2, Endothelin-1 receptor; test: Radioligand binding selectivity to human Endothelin A receptor in chinese hamster ovary cells; type: cell-based, CHO
Endothelin receptor = target: T4, Endothelin receptor (Rattus norvegicus, UniProt P26684+P21451); test: Inhibition of phosphoinositol hydrolysis of MMQ cells.; type: functional, cell-based
T4 sequence (P26684 whole entry): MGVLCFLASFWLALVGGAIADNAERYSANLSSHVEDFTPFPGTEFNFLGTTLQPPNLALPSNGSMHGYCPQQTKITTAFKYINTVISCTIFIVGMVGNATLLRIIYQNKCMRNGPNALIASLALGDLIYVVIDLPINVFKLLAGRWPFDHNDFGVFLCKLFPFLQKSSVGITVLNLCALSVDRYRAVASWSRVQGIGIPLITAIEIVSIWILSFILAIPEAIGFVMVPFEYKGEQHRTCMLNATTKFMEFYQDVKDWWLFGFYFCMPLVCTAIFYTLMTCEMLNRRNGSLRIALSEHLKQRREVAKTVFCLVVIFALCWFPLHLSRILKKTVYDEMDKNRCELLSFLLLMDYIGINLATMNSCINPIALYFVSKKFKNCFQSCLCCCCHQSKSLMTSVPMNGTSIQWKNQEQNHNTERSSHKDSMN
T4 sequence (P21451 whole entry): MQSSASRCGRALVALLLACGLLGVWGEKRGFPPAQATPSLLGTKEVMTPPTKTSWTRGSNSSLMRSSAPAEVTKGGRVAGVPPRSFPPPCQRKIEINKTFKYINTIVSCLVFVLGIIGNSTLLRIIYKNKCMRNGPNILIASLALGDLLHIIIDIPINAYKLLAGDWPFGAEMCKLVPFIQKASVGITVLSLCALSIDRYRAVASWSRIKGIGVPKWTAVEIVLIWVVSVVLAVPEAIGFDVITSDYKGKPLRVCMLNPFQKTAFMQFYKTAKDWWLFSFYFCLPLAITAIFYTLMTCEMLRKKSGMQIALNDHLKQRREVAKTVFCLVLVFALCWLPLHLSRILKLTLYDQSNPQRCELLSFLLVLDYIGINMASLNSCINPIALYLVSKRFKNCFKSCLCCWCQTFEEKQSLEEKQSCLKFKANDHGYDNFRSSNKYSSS

[5] = target: T1, Endothelin receptor type B; test: Radioligand binding selectivity to human Endothelin B receptor in chinese hamster ovary cells; type: cell-based, CHO
Endothelin-1 receptor [6] = target: T5, Endothelin-1 receptor (Rattus norvegicus, UniProt P26684); test: Inhibitory activity against the Endothelin A receptor of rat MMQ cells; type: cell-based
T5 sequence (P26684 whole entry): T4 sequence (P26684 whole entry)

[7] = target: T3, Endothelin receptor type B; test: Inhibitory activity was measured against Endothelin B receptor binding to porcine cerebellum; inactive; type: tissue-based

Row | SMILES | Ki [1] [nM] | Ki (Endothelin-1 receptor [2]) [nM] | IC50 [3] [nM] | IC50 (Endothelin-1 receptor [4]) [nM] | IC50 (Endothelin receptor) [nM] | IC50 [5] [nM] | IC50 (Endothelin-1 receptor [6]) [nM] | IC50 [7]
1 | CCCc1cc(C(=O)O)ccc1OC(C(=O)NS(=O)(=O)c1ccc(C(C)C)cc1)c1ccc2c(c1)OCO2 [L-754142] | 5.4 | 0.13 |  |  |  |  |  | 
2 | COc1ccc(C2(O)OC(=O)C(c3ccc4c(c3)OCO4)=C2Cc2cc(OC)c(OC)c(OC)c2)cc1 (stereo not given) [PD-156707] | 139 |  |  |  |  |  |  | 
3 | CCCNC(=O)CN1C[C@@H](c2ccc3c(c2)OCO3)[C@H](C(=O)O)[C@H]1c1ccc(OC)cc1 |  |  | 398 | 45.3 | 24.6 | 579 | 17.2 | 
4 | CCCCN(CCC)C(=O)CN1C[C@@H](c2ccc3c(c2)OCO3)[C@H](C(=O)O)[C@H]1c1ccc(OC)cc1 |  |  | 40 | 0.81 | 0.25 | 211 | 0.22 | 
5 | CCCN(CCC)C(=O)CN1C[C@@H](c2ccc3c(c2)OCO3)[C@H](C(=O)O)[C@H]1c1ccc(OC)cc1 |  |  | 598 | 0.55 | 0.24 | 397 |  | 
6 | CCCCN(CCCC)C(=O)CN1CC(c2ccc3c(c2)OCO3)C(C(N)=O)C1c1ccc(OC)cc1 (stereo not given) |  |  |  |  |  |  | 58 | Not Active
7 | Cc1noc(NS(=O)(=O)c2cccc3c(N(C)C)cccc23)c1C [BMS-182874] | > 50000 |  |  |  |  |  |  | 
8 | CCCCN(C)C(=O)CN1C[C@@H](c2ccc3c(c2)OCO3)[C@H](C(=O)O)[C@H]1c1ccc(OC)cc1 |  |  | 1390 | 4.88 | 0.97 | 1080 | 4.71 | 
9 | CCCN(C)C(=O)CN1C[C@@H](c2ccc3c(c2)OCO3)[C@H](C(=O)O)[C@H]1c1ccc(OC)cc1 |  |  | 2900 | 21.3 | 9.12 | 4570 | 6.63 | 
